Measurements as given in PMC8183095, “Uncovering the chemistry of C–C bond formation in C-nucleoside biosynthesis: crystal structure of a C-glycoside synthase/PRPP complex” (Chemical Communications (Cambridge, England), 2020).

Columns and labels:
[1] = biological target: T1, ForT (Streptomyces kaniharaensis, UniProt A0A5S9CYM0, G134P); assay: biochemical
T1 construct: gene cof6

[2] = biological target: T2, ForT (Streptomyces kaniharaensis, UniProt A0A5S9CYM0); assay: biochemical; parameters: gene cof6
T2 sequence (A0A5S9CYM0 1-341): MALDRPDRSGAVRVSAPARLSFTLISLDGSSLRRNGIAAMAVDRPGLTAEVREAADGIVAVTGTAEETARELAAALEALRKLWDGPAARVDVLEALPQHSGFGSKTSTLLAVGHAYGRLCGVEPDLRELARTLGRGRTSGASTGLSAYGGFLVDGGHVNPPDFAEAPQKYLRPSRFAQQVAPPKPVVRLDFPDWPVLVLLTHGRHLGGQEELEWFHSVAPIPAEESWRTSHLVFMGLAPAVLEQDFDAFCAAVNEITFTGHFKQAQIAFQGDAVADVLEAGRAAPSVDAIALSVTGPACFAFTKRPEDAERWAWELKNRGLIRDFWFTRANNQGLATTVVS

[3] = biological target: T2, ForT; assay: LCMS product detection; membrane-inlet mass spectrometry of CO2 production; format: biochemical; parameters: gene cof6; recombinant wild type, expressed in and purified from Escherichia coli; residues 11-171, 180-205, 209-341 (C-terminus) seen in the crystal; dimer in solution; settings: co-substrate PRPP; Mg2+ apparently needed
[4] = biological target: ForT (wild type), C-glycoside synthase from Streptomyces kaniharaensis (Streptomyces kaniharaensis); assay: SEC-MALS; gel filtration and multi-angle light scattering of ForT in solution

T1 sequence (A0A5S9CYM0 entry or part of it G134P): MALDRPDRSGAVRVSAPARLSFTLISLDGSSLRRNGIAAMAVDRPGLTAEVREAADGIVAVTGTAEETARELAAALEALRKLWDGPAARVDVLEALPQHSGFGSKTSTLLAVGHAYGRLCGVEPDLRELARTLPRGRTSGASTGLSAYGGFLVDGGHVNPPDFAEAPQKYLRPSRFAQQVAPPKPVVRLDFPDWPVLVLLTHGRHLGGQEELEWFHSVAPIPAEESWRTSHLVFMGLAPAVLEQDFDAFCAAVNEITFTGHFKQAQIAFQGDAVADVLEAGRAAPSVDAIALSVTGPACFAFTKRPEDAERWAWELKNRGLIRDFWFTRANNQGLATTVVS

In the case of `O=P(O)(O)OC[C@H]1O[C@H](OP(=O)(O)OP(=O)(O)O)[C@H](O)[C@@H]1O` [compound 4, PRPP], the Kd [1] is reported as greater than 200 µM and the Kd [2] is reported as 4 µM.

With `Nc1c(C(=O)O)n[nH]c1C(=O)O` [compound 5, 4-amino-1H-pyrazole-3,5-dicarboxylate] the “LCMS product detection; membrane-inlet mass spectrometry of CO2 production” value [3] was “LCMS confirmed formation of the expected product when the enzyme was incubated with PRPP”.

With “ForT (wild type), C-glycoside synthase from Streptomyces kaniharaensis (enzyme)” the stoichiometry N [4] was 2.
